# Tests used:
# [1] = tested on: focal cerebral ischemia in rats; test: Memory disorder induced by focal cerebral ischemia (shuttle box, artery ligation by method of Tamura); type: in vivo, male Wistar rats; conditions: 15 and 30 mg/kg oral 15 min after operation; observed after 24 hours; vs vehicle control
# Method: Experimental Animal: The same as Example 1. Experimental Equipment: Shuttle box. Experimental Methods: • 1. Rats were trained to acquire learning and memory; • 2. Artery ligation: Artery ligation was conducted on rats according to the method of Tamura. After 24 hours, the experiment of learning as in step (1) was repeatedly conducted on rats. • 3. Grouping and administration: the rats were divided into 9 groups, which were normal group, pseudo-operation group, ischemia control group, and groups of dl-, d-, and l-NBP (15 and 30 mg/kg). The rats were orally administered at 15 min after the operation, and the changes of latency of active and passive avoidance response were observed after 24 hours.
# [2] = tested on: ischemic brain of decapitated mice; test: Ischemic cerebral metabolism of energy induced by decapitation of mice; type: in vivo, KunMing mice; conditions: NBP 50 and 100 mg/kg oral, sodium Phenobarbital 225 mg/kg ip.; decapitated 30 minutes after administration; 15 seconds ischemia; vs control group
# Method: Experimental Animals: KunMing mice.
# Test drug: injectable L-butylphthalide was formulated into an emulsion with Tween-80.
# Experimental Methods: KunMing mice of 10 to 22 g were divided into 8 groups with 10 mice per group. dl-, d-, and l-NBP (50 and 100 mg/kg/d), sodium Phenobarbital (225 mg/kg ip.) and the vehicle were orally administered. Thirty minutes after administration, the mice were decapitated.
# The time between the decapitation and homogenation, which was 15 seconds, was regarded as cerebral ischemic time. Centrifugation and isolation were conducted by the method of Folbergrova, and the contents of lactic acid, ATP and PCr were determined by enzymological method.
structure (smiles),measurement,setting,value
"CCCCC1OC(=O)c2ccccc21 (racemic) [dl-NBP, butylphthalide]",times of active avoidance,[1],not observed
same,content of ATP in the brain,[2],no such significant effect
same,content of PCr in the brain,[2],no such significant effect
same,content of lactic acid in the brain,[2],no such significant effect
"CCCC[C@@H]1OC(=O)c2ccccc21 [l-NBP, L-butylphthalide]",times of active avoidance,[1],significantly increased
same,content of ATP in the brain,[2],increased
same,content of PCr in the brain,[2],increased
same,content of lactic acid in the brain,[2],significantly decreased
